Test results published in the NIST ThermoML archive (doi:10.1021/acs.jced.7b00572).
Numbers after ± are expanded uncertainties.

Details: Liquid, Vibrating wire viscometry

O=C(C(F)(F)C(F)(F)F)C(F)(C(F)(F)F)C(F)(F)F [dodecafluoro-2-methylpentan-3-one]
Details | viscosity [mPa·s]
243.15 K, 10000 kPa | 1.923 ± 0.04
243.15 K, 20000 kPa | 2.329 ± 0.048
243.15 K, 40000 kPa | 3.247 ± 0.067
243.16 K, 100 kPa | 1.597 ± 0.034
243.16 K, 1000 kPa | 1.628 ± 0.034
243.16 K, 5000 kPa | 1.749 ± 0.037
243.16 K, 30000 kPa | 2.761 ± 0.057
253.15 K, 100 kPa | 1.307 ± 0.027
253.15 K, 1000 kPa | 1.339 ± 0.029
253.15 K, 5000 kPa | 1.451 ± 0.03
253.15 K, 10000 kPa | 1.58 ± 0.033
253.15 K, 20000 kPa | 1.913 ± 0.04
253.15 K, 30000 kPa | 2.26 ± 0.047
253.16 K, 40000 kPa | 2.659 ± 0.055
263.14 K, 5000 kPa | 1.197 ± 0.025
263.14 K, 10000 kPa | 1.327 ± 0.028
263.14 K, 20000 kPa | 1.573 ± 0.033
263.14 K, 30000 kPa | 1.86 ± 0.039
263.14 K, 40000 kPa | 2.169 ± 0.045
263.15 K, 100 kPa | 1.082 ± 0.023
263.15 K, 1000 kPa | 1.107 ± 0.024
273.14 K, 100 kPa | 0.9209 ± 0.02
273.14 K, 20000 kPa | 1.332 ± 0.028
273.15 K, 1000 kPa | 0.9395 ± 0.02
273.15 K, 5000 kPa | 1.014 ± 0.022
273.15 K, 10000 kPa | 1.117 ± 0.024
273.15 K, 30000 kPa | 1.566 ± 0.033
273.15 K, 40000 kPa | 1.818 ± 0.038
283.15 K, 100 kPa | 0.7823 ± 0.017
283.15 K, 1000 kPa | 0.7955 ± 0.017
283.15 K, 5000 kPa | 0.8641 ± 0.019
283.15 K, 10000 kPa | 0.9569 ± 0.021
283.15 K, 20000 kPa | 1.142 ± 0.024
283.15 K, 30000 kPa | 1.345 ± 0.028
283.15 K, 40000 kPa | 1.567 ± 0.033
293.14 K, 10000 kPa | 0.8262 ± 0.018
293.15 K, 100 kPa | 0.6693 ± 0.015
293.15 K, 1000 kPa | 0.6851 ± 0.015
293.15 K, 5000 kPa | 0.7466 ± 0.016
293.15 K, 40000 kPa | 1.35 ± 0.028
293.16 K, 20000 kPa | 0.9881 ± 0.021
293.16 K, 30000 kPa | 1.156 ± 0.025
303.14 K, 5000 kPa | 0.6463 ± 0.014
303.15 K, 100 kPa | 0.5776 ± 0.013
303.15 K, 10000 kPa | 0.7173 ± 0.016
303.15 K, 20000 kPa | 0.861 ± 0.018
303.15 K, 40000 kPa | 1.177 ± 0.025
303.16 K, 1000 kPa | 0.5906 ± 0.013
303.16 K, 30000 kPa | 1.013 ± 0.022
313.13 K, 1000 kPa | 0.5123 ± 0.012
313.14 K, 5000 kPa | 0.5621 ± 0.013
313.14 K, 20000 kPa | 0.7566 ± 0.017
313.14 K, 30000 kPa | 0.8908 ± 0.019
313.15 K, 100 kPa | 0.5006 ± 0.011
313.15 K, 10000 kPa | 0.6263 ± 0.014
313.15 K, 40000 kPa | 1.033 ± 0.022
323.16 K, 1000 kPa | 0.4465 ± 0.01
323.16 K, 20000 kPa | 0.668 ± 0.015
323.16 K, 30000 kPa | 0.7894 ± 0.017
323.16 K, 40100 kPa | 0.9178 ± 0.02
323.17 K, 5000 kPa | 0.4933 ± 0.011
323.17 K, 10000 kPa | 0.5514 ± 0.012
333.16 K, 1000 kPa | 0.3918 ± 0.0093
333.16 K, 5000 kPa | 0.4349 ± 0.01
333.16 K, 10000 kPa | 0.4891 ± 0.011
333.16 K, 20000 kPa | 0.5966 ± 0.013
333.16 K, 30000 kPa | 0.7059 ± 0.015
333.16 K, 40000 kPa | 0.8211 ± 0.018
343.15 K, 5000 kPa | 0.3849 ± 0.0092
343.15 K, 10000 kPa | 0.4348 ± 0.01
343.15 K, 20000 kPa | 0.5345 ± 0.012
343.15 K, 30000 kPa | 0.6351 ± 0.014
343.15 K, 40000 kPa | 0.7373 ± 0.016
343.16 K, 1000 kPa | 0.342 ± 0.0084
353.15 K, 1000 kPa | 0.3011 ± 0.0077
353.15 K, 30000 kPa | 0.5739 ± 0.013
353.15 K, 40000 kPa | 0.6681 ± 0.015
353.16 K, 5000 kPa | 0.3426 ± 0.0084
353.16 K, 10000 kPa | 0.3892 ± 0.0093
353.16 K, 20000 kPa | 0.4822 ± 0.011
363.15 K, 5000 kPa | 0.3044 ± 0.0077
363.15 K, 10000 kPa | 0.3496 ± 0.0085
363.15 K, 20000 kPa | 0.436 ± 0.01
363.15 K, 30000 kPa | 0.5213 ± 0.012
363.15 K, 40000 kPa | 0.608 ± 0.013
373.15 K, 5000 kPa | 0.2711 ± 0.0071
373.15 K, 10000 kPa | 0.3155 ± 0.0079
373.15 K, 20000 kPa | 0.397 ± 0.0094
373.15 K, 30000 kPa | 0.4778 ± 0.011
373.15 K, 40000 kPa | 0.5583 ± 0.013
